Results taken from publication PMC11410943 (Nature Communications, 2024).
Converted amounts (≈) assume the structure as drawn. Read-outs that look alike come from different tables or passages of the source.

How the values were obtained:
P-glycoprotein (P-gp) = P-glycoprotein (P-gp) (Homo sapiens, UniProt P08183); assay: P-gp substrate determination; format: in vitro ADME
[1] = Hepatocyte stability / intrinsic clearance; format: in vitro ADME, monkey
Staphylococcus aureus = assay: MIC
[2] = Hepatocyte stability / intrinsic clearance; format: in vitro ADME, rat
[3] = Dog 14-day GLP toxicology; format: in vivo
E. cloacae = format: cell-based
[4] = molecular target: acetylcholine esterase (AChE) (Homo sapiens, UniProt P22303); assay: AChE inhibition, reversibility on dilution; format: biochemical; conditions: 30 μM, 100-fold dilution to 0.3 μM, excess AChE
Sequence of acetylcholine esterase (AChE) (P22303 32-614): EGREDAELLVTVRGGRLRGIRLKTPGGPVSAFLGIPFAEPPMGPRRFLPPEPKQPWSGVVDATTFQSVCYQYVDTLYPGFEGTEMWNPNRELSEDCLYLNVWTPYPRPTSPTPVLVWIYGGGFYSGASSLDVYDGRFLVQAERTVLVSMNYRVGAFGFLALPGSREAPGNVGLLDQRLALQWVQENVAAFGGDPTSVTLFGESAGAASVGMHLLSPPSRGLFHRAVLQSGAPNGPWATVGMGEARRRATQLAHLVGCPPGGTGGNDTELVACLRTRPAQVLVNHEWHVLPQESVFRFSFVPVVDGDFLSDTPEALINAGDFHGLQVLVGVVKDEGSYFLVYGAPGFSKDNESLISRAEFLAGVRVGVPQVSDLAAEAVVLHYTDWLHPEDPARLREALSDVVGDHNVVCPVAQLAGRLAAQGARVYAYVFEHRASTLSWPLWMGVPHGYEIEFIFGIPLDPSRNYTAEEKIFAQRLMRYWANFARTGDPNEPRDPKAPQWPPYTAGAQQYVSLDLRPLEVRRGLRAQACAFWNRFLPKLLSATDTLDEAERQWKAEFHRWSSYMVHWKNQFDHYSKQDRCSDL

[5] = Bile duct cannulation / excretion study in rats; format: in vivo, Sprague-Dawley rats
[6] = tested on: other cardiac ion channels; assay: Other cardiac ion channels; format: cell-based
P. aeruginosa [7] = assay: Neutropenic rat lung infection model; conditions: IV infusion, MDR isolates
[8] = Rat 14-day GLP toxicology / toxicokinetics; format: in vivo
hERG = hERG (Homo sapiens, UniProt Q12809); assay: hERG manual patch-clamp; format: cell-based
Sequence of hERG (Q12809 whole entry): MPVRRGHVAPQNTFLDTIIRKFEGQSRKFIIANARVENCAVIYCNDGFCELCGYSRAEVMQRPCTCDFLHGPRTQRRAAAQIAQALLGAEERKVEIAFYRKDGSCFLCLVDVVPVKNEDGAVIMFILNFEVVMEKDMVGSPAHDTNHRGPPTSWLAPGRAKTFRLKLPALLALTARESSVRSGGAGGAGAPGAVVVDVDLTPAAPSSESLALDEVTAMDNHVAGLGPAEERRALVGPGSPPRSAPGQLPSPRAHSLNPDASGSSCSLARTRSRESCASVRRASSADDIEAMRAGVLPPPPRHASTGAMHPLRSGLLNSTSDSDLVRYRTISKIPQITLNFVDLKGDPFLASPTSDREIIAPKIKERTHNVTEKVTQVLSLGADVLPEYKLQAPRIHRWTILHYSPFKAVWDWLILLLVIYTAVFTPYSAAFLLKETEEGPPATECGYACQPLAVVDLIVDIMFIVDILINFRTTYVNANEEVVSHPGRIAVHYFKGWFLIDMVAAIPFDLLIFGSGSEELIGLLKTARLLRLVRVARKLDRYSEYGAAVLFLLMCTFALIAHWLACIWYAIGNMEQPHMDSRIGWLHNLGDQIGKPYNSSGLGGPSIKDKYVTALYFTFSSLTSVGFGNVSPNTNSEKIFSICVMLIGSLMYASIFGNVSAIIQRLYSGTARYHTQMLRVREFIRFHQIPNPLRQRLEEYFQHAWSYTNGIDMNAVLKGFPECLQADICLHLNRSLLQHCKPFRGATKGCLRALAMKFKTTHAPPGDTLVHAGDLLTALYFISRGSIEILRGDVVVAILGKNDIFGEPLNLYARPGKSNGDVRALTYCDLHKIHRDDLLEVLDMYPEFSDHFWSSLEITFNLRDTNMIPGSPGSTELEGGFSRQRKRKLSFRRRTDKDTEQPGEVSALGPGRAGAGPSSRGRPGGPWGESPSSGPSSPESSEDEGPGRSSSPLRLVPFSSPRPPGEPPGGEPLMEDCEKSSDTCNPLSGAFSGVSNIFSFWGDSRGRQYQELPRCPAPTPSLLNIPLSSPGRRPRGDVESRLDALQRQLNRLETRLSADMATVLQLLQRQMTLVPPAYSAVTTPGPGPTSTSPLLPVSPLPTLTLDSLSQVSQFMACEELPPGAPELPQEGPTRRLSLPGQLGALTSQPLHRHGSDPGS

MAD study C002-2023-01 = format: in vivo, healthy human volunteers; conditions: 240 mg, two subjects
A. baumannii = conditions: in vivo, iv
Dog cardiovascular study = format: in vivo
[9] = Plasma protein binding, equilibrium dialysis; format: in vitro ADME, rats; conditions: % bound
P. aeruginosa [10] = tested on: P. aeruginosa

Sequence of P-glycoprotein (P-gp) (P08183 whole entry): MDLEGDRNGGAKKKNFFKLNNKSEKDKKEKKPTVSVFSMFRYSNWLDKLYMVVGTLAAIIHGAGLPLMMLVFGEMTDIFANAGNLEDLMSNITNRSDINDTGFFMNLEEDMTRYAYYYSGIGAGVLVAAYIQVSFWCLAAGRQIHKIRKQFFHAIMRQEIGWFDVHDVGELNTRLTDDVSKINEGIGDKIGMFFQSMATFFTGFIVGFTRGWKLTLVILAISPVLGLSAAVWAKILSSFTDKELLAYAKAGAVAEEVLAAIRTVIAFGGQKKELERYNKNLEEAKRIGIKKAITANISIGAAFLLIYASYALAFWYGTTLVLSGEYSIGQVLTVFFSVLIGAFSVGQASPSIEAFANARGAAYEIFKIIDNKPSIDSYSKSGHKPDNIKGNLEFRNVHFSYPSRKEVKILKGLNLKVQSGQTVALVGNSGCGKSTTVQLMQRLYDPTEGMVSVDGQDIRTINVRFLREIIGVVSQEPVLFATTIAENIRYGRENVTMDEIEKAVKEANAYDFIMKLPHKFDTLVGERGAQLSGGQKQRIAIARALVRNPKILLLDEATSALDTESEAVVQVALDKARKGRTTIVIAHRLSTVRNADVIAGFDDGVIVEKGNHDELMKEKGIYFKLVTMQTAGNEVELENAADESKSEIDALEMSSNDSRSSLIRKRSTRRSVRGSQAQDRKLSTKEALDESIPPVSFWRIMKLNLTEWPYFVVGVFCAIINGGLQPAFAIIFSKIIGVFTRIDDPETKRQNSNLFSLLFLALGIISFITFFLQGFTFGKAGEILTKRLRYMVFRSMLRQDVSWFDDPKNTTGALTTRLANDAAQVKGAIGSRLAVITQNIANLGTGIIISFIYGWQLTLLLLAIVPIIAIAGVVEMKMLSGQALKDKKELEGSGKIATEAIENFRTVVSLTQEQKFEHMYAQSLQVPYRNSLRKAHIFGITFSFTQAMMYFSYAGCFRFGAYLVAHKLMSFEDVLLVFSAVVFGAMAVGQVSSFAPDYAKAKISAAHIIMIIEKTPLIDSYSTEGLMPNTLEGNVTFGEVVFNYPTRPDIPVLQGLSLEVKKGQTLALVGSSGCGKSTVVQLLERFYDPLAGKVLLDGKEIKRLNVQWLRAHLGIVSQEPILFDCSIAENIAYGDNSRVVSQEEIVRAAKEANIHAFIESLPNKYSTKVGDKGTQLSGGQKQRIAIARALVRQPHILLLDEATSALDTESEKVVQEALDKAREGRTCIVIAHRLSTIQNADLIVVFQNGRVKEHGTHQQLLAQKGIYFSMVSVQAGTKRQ

Cn1c(=O)ccc2ccc(F)c(CCNC[C@H]3CN(c4cnc5c(n4)NC(=O)CO5)C(=O)O3)c21 [BWC0977, 6-[(5S)−5-[[[2-(7-Fluoro-1,2-dihydro-1-methyl-2-oxo-8-quinolinyl)ethyl]amino]methyl]−2-oxo-3-oxazolidinyl]−2H-pyrazino[2,3-b]−1,4-oxazin-3(4H)-one]
P-gp substrate status (P-glycoprotein (P-gp)): substrate
clearance predicted from CLint, % of liver blood flow (LBF) [1]: < 30%
MIC (Staphylococcus aureus; Staphylococcus aureus, read-out: median MIC): 0.01 µg/mL (≈ 0.0213 µM)
MIC90 (Staphylococcus aureus; global panel, N=560, including MRSA): 0.03 µg/mL (≈ 0.064 µM)
clearance predicted from CLint, % of liver blood flow (LBF) [2]: < 30%
microscopic findings ([3]; dose levels above 40 mg/kg/day): Microscopic changes consistent with hepatobiliary toxicity
NOAEL at 14 day ([3]; in vivo): 40 mg/kg/day
AUC(0-t) ([3]; in vivo, 40 mg/kg/day): 90000 ng·h/mL
Cmax ([3]; in vivo, 40 mg/kg/day): 25000 ng/mL
in vitro killing kinetics (E. cloacae): significant bactericidal activity
reversibility of AChE inhibition [4]: rapidly reversed
total dose observed unchanged in the bile [5]: about 1.5%
concentration up to which other cardiac ion channels are not inhibited [6]: > 300 µM
dose-response efficacy (P. aeruginosa [7]): excellent bactericidal dose-response
AUC0–24 at NOAEL ([8]; 75 mg/kg/day): 52000 ng·h/mL
NOAEL at 14 day ([8]; in vivo): 75 mg/kg/day
Cmax ([8]; in vivo, 75 mg/kg/day): 26000 ng/mL
AUC(0-t) ([8]; in vivo, 250 mg/kg/day, AUC0–24 at highest dose level): 355000 ng·h/mL
microscopic findings ([8]; up to 250 mg/kg/day): no microscopic findings
IC50 (hERG): 49.7 µM
systemic adverse events (MAD study C002-2023-01): no systemic adverse events
infusion site finding on ultrasound (MAD study C002-2023-01; 12/14 and 14/14 doses): small non-occlusive thrombus proximal to the infusion site in both volunteers
dose-response efficacy (A. baumannii): excellent bactericidal dose-response
increase in QTc (Dog cardiovascular study; 1-hour infusion of 30 or 60 mg/kg, within 3−6 h): 4 to 11 ms
heart rate (Dog cardiovascular study; 30 and 60 mg/kg): notable increase in heart rate
plasma protein binding [9]: 94%
in vitro resistance frequency (P. aeruginosa [10]): < 1 × 10^−9
resistance frequency (P. aeruginosa [10]): < 1 × 10^−9
